Source: patent US5691373A, “Nonpeptide endothelin antagonists I” (Warner-Lambert Company, priority 1995, dated 1997)
Where two headings read alike, the source gives them in different places. Where a SMILES comes first, the peptide text is derived from it. [ ]: non-standard residue; d: D form.

How the values were obtained:
[1] = tested on: ETA; conditions: cited from earlier work
[2] = tested on: cerebral vasospasm; conditions: cited from earlier work; for early cerebral vasospasm following SAH: rat
[3] = tested on: cerebral vasospasm; conditions: cited from earlier work
[4] = tested on: ET-1 induced bronchoconstriction and tracheal smooth muscle contraction; conditions: allergic sheep; cited from earlier work
[5] = tested on: endotoxic shock; conditions: cited from earlier work
[6] = tested on: cerebral vasospasm; conditions: in vivo; cited from earlier work
[7] = tested on: ET-1 Induced Pressor Response; assay: inhibition of ET-1 induced pressor response in anesthetized ganglionic blocked rats; assay type: in vivo, rat (Sprague Dawley); conditions: IV, ET-1 1 nm/kg
Description: Antagonists were administered IV bolus (3, 10, 30, 100 μmol/kg, IV bolus) in separate groups of rats (5 minutes before ET-1 challenge [see Haleen, et al., J. Cardiovasc, Pharm., 22(Suppl. 8):598-5102 (1993)]). Duration of action of the antagonist was determined in conscious, chronically prepared normotensive rats. Rats were challenged with ET-1 (1.0 nmol/kg, IV bolus) on 5 consecutive days; Day =b 1 =l control and on Days 2-5 at 5, 20, 60, and 120 minutes following treatment with the antagonist. Separate groups of rats were used for each antagonist treatment.

[8] = biological target: T1, ETB (Rattus norvegicus, UniProt P21451)
T1 sequence (P21451 27-442): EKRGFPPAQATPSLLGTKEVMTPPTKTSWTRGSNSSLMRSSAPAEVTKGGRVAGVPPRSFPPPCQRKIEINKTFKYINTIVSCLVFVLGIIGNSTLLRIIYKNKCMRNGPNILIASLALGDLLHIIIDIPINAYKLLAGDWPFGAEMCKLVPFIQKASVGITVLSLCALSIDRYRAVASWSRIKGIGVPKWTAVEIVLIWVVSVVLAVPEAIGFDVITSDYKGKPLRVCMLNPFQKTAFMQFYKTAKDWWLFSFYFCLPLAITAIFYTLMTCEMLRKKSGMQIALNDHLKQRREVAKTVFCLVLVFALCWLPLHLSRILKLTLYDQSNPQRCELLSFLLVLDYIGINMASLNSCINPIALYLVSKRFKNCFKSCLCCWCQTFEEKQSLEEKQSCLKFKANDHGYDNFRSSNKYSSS

[9] = biological target: T2, ETA (Oryctolagus cuniculus, UniProt A5A8K3)
T2 sequence (A5A8K3 21-427): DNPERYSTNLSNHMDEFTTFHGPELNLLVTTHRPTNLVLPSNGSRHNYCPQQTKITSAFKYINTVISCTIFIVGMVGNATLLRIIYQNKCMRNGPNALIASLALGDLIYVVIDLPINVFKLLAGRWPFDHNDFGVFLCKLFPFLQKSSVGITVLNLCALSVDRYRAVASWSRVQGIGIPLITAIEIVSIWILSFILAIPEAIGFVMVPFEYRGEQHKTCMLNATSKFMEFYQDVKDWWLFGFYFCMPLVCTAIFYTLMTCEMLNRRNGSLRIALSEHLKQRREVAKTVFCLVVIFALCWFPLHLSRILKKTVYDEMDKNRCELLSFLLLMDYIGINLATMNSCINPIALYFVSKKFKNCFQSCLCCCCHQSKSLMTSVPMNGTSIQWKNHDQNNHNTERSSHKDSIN
Description: The cells used were rabbit renal artery vascular smooth muscle cells grown in a 48-well dish (1 cm^2) (confluent cells).
The growth media was Dulbecco's Modified Eagles/Ham's F12 which contained 10% fetal bovine serum and antibiotics (penicillin/streptomycin/fungizone).
Second, remove the assay buffers, place the dish on ice, and add 150 μL of cold assay buffer described above to each well. […] Next, place dish in a 37° C., water bath for about 2 hours and gently agitate the dish every 15 minutes. Discard the radioactive incubation mixture in the sink and wash wells 3 times with 1 mL of cold phosphate buffered saline.

[10] = biological target: T3, human ETB receptor (Homo sapiens, UniProt P24530); assay: ERBA-B: [125I]-ET-1 binding, recombinant human ETB receptor expressed in CHO-K1 cells; conditions: human cloned ETB receptor, read-out: ERBA-B IC50, human cloned receptor data
T3 construct: expressed in transfected cells; host or cells: CHO-K1 cells, pRc-CMW (so in the source) expression vector, electroporation; membranes used
T3 sequence (P24530 27-442): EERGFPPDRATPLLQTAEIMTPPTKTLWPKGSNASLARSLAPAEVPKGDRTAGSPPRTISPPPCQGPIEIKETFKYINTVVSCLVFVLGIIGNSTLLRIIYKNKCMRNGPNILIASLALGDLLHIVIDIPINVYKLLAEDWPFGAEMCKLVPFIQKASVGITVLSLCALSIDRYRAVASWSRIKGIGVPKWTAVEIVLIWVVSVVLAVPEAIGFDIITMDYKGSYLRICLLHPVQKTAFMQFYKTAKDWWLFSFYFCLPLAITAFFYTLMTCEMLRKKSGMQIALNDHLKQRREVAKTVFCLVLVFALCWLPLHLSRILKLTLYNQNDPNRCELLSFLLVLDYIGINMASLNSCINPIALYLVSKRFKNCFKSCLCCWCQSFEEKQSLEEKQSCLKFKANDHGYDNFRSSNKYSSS

[11] = biological target: T2, ETA; assay: VERA-A: antagonism of ET-1 stimulated vasoconstriction in the rabbit femoral artery (ETA); assay type: cell-based; conditions: ET-1, rabbit femoral artery
Procedure, shortened: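 Endothelium-denuded 4-mm rings of femoral and pulmonary artery from male New Zealand rabbits. Resting tension 3.0 g for femoral and 4.0 g for pulmonary rings, with 90 min equilibration.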

[12] = tested on: acute renal ischemia; conditions: rats; cited from earlier work
[13] = tested on: ETB; conditions: isolated, endothelium-intact porcine pulmonary arteries; cited from earlier work

In the case of `Cc1noc(NS(=O)(=O)c2cccc3c(N(C)C)cccc23)c1C` [5-(Dimethylemino)-N-(3,4-dimethyl-5-isoxazolyl)-1-naphthalenesulfonamide], the oral antihypertensive effect [1] is given as “demonstrated an oral antihypertensive effect”.
For `CC(C)C[C@@H]1NC(=O)[C@@H](C(C)C)NC(=O)[C@@H]2CCCN2C(=O)[C@@H](CC(=O)O)NC(=O)[C@@H](Cc2c[nH]c3ccccc23)NC1=O` [BQ-123] (cyclo(L[dW][dD]P[dV])), the “early cerebral vasospasm following SAH” value [2] is given as “prevents early cerebral vasospasm following SAH”, the “early cerebral vasospasm following SAH” value ([3]; rabbit) is given as “prevents early cerebral vasospasm following SAH” and the “ET-1 induced bronchoconstriction and tracheal smooth muscle contraction” value [4] is given as “block ET-1 induced bronchoconstriction and tracheal smooth muscle contraction”. The survival rate [5] was “significantly increased the survival rate” and the “early cerebral vasospasm following subarachnoid hemorrhage” value [6] was “prevent early cerebral vasospasm following subarachnoid hemorrhage”.
In the case of `COc1ccc(C(=O)/C(Cc2ccccc2)=C(\C(=O)O)c2ccc3c(c2)OCO3)cc1` [Example 171, 2-Butenoic acid, 2-(1,3-benzodioxol-5-yl)-4-(4-methoxyphenyl)-4-oxo-3-(phenylmethyl)-, (Z)-, ion(1-) compd. with 2-hydroxy-N,N,N-triethanaminium (1:1)], the “% Inhibition on ET-1 Induced Pressor Response” value (“% Inhibition” for short) ([7]; 3 μmol/kg) is reported as 21%, the “% Inhibition” value ([7]; 10 μmol/kg) is reported as 26% and the “% Inhibition” value ([7]; 30 μmol/kg) is reported as 35%. For the same compound, the “% Inhibition” value ([7]; 100 μmol/kg) was 57%, the IC50 [8] was 2200 nM and the IC50 ([9]; ERBA-A IC50, [125I]-ET-1, rabbit renal artery vascular smooth muscle cells) was 39 nM.
For `CCCOc1cccc(C/C(C(=O)c2ccc(OC)cc2)=C(/C(=O)O)c2ccc3c(c2)OCO3)c1` [Example 253, 2-Butenoic acid, 2-(1,3-benzodioxol-5-yl)-4-(4-methoxyphenyl)-4-oxo-3-[(3-propoxyphenyl)methyl]-, (Z)-, ion(1-) compound with 2-hydroxy-N,N,N-trimethylethanaminium (1:1)], the IC50 [10] was 900 nM, the “VERA-A pA2” value [11] was 7.0 and the “% Inhibition” value ([7]; 3 μmol/kg) was 22%. The “% Inhibition” value ([7]; 10 μmol/kg) was 42%, the “% Inhibition” value ([7]; 30 μmol/kg) was 53% and the IC50 ([9]; read-out: ERBA-A IC50, [125I]-ET-1, rabbit renal artery vascular smooth muscle cells) was 17 nM.
For `COc1cccc(Oc2c(NS(=O)(=O)c3ccc(C(C)(C)C)cc3)ncnc2OCCO)c1` [Ro 46-2005], the “systemic arterial blood pressure” value ([2]; rat with SAH) is listed as “no significant effect on systemic arterial blood pressure”, the “early cerebral vasospasm following SAH” value [2] is listed as “prevent early cerebral vasospasm following SAH” and the “efficacy in subarachnoid hemorrhage” value ([2]; rats) is listed as “effective in models of acute renal ischemia and subarachnoid hemorrhage”. The “efficacy in acute renal ischemia” value [12] was “effective in models of acute renal ischemia”.
For `COc1ccccc1Oc1c(NS(=O)(=O)c2ccc(C(C)(C)C)cc2)nc(-c2ncccn2)nc1OCCO` [Ro 47-0203, Bosentan], the “reduction of basilar artery cross-sectional area compared to sham” value ([3]; rabbits with SAH) is listed as 36±7%.
For ET[6-21, 1,3,11,15-Ala], the vasorelaxation [13] is given as “caused vasorelaxation”.
For ET[8-21,11,15-Ala], the vasorelaxation [13] is given as “caused vasorelaxation”.
In the case of N-Acetyl-ET[10-21,11,15-Ala], the vasorelaxation [13] is given as “caused vasorelaxation”.
